Assay results from US8383690B2, “Pharmaceutical composition useful for the treatment of peptic ulcer diseases” (Council of Scientific and Industrial Research, priority 2006, dated 2013).
Values after ≈ are worked out from the molar mass of the structure shown. Read-outs that look alike come from different tables or passages of the source.

How the values were obtained:
H. pylori [1] = test: MIC/MBC by microbroth dilution assay against H. pylori; format: cell-based, Helicobacter pylori
H. pylori [2] = test: Disc diffusion sensitivity assay against H. pylori; format: cell-based, Helicobacter pylori; conditions: for zone of inhibition at 100 µg/disc / zone of inhibition at 200 µg/disc: Helicobacter pylori, read-out: Inhibition Zone Diameter; for zone of inhibition at 100 µg/disc: 100 μg/disc; for zone of inhibition at 200 µg/disc: 200 μg/disc
gastric H+,K+-ATPase = target: T1, gastric H+,K+-ATPase (Sus scrofa, UniProt P19156); test: Anti gastric proton pump activity: H+,K+-ATPase inhibition in pig gastric membranes; format: biochemical
T1 construct: Pig gastric membranes enriched in apical and tubulovesicular membranes were prepared according to [59]; from tissue; host or cells: pig gastric mucosa membranes (apical and tubulovesicular)
T1 sequence (P19156 whole entry): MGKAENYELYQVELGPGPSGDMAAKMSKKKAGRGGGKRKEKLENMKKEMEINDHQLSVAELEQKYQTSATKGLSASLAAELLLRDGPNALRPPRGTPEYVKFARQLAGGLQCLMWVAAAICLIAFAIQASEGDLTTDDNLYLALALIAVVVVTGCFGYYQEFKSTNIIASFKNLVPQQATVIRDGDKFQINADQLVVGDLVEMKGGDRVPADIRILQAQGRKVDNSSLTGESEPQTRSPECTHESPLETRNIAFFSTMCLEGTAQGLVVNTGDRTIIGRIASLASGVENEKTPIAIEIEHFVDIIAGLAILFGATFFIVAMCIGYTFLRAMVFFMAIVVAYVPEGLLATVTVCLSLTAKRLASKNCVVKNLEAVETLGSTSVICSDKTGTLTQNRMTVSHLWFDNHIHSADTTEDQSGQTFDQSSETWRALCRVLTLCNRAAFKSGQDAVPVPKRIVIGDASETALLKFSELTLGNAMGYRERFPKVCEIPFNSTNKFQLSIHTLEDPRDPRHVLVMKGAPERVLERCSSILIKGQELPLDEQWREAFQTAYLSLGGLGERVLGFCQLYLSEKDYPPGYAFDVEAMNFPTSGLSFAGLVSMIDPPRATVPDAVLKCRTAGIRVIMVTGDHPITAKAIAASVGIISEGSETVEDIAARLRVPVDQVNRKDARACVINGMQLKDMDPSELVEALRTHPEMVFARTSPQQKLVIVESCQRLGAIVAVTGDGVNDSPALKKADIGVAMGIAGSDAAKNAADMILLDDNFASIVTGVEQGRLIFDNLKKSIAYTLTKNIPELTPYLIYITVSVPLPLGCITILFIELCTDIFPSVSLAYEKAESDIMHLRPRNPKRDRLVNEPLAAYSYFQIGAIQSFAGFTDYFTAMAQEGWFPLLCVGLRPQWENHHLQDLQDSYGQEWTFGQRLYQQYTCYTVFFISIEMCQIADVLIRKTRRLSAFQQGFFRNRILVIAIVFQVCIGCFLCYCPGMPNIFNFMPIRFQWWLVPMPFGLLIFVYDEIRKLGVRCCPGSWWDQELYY
T1 sequence (P18434 whole entry partner): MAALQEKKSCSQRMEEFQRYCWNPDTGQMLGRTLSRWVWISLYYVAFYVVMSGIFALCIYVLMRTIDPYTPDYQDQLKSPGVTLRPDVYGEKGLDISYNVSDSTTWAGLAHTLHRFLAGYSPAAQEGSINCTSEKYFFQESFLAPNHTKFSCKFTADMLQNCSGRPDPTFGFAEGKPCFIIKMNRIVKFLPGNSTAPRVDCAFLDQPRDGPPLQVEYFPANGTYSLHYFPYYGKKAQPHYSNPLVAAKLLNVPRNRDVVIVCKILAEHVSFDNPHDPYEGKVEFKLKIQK
Description: Pig gastric membranes enriched in apical and tubulovesicular membranes were prepared according to [59].
The H^+,K^+-ATPase activity was measured at 37° C. in a 1-mL reaction mixture containing 2 mM MgCl2, 2 mM ATP, 10 mM PIPES (pH 6.8), 10 mM KCl and 10-12 μg membrane protein. An otherwise complete assay mixture was preincubated for 10 min in presence and absence of different concentrations of oenothein C or omeprazole before initiating the reaction with ATP. After incubation for 10 min, the reaction was terminated by the addition of 1 mL ice-chilled TCA (14%).
K^+-stimulated activity, referred to as H^+,K^+-ATPase, was calculated as the difference between the activity in presence of Mg plus K^+ and the basal activity (Mg^+-ATPase) in presence of Mg^+ alone. […] Following enzymatic assay method, the inhibitory activity of oenothein C was assessed. The effects are quantitated in terms of percent inhibition of H^+,K^+-ATPase, and compared with that of omeprazole, a specific inhibitor of gastric H^+,K^+-ATPase.

B. cereus = test: Antibacterial microbroth dilution assay in Muller Hinton broth (NCCLS); format: cell-based; conditions: Bacillus cereus, gram positive
Excerpt: (§1) Further, the antibacterial activity of oenothein C was examined against four aerobic bacteria (1 gram positive, B. cereus and 3 gram negative, S. typhi, E. coli & K. pneumoniae) by microbroth dilution assay in Muller Hinton broth essentially by following NCCLS (National Commmittee for Clinical Laboratory Standards) guideline.

E. coli = test: as above; format: cell-based; conditions: Escherichia coli, gram negative
Excerpt: as §1

K. pneumoniae = test: as above; format: cell-based; conditions: Klebsiella pneumoniae, gram negative
Excerpt: as §1

S. typhi = test: as above; format: cell-based; conditions: Salmonella enterica
Excerpt: as §1

Swiss albino mice = test: Toxicity evaluation (mortality) in Swiss albino mice; format: in vivo
Description: The compound oenothein C was checked for mortality of the Swiss albino mice.
Maximum dosage of 250 mg/Kg body weight of compound oenothein C was given to 5 swiss albino mice via oral route.

Solubility in solvents = format: physicochemical; conditions: methanol, acetone, DMSO
Description: The molecule oenothein C has been isolated from the flowers of the plant Woodfordia fruticosa, abundantly available in the Indian subcontinent. Dried flowers of Woodfordia fruticosa were extracted by soaking overnight with 1:1 methanol-water at room temperature. The process was repeated thrice. The combined extract was evaporated at 45° C. in a rotary evaporator to get the crude extract. This was partitioned between n-butanol and water. The layers were separately evaporated at 45° C. to obtain two fractions. The n-butanol soluble fraction was chromatographed repeatedly over diaion HP-20 and sephadex LH-20 columns following bioassay guided fractionation technique to obtain pure oenothein C as an off-white solid, amorphous in nature.

[3] = Helicobacter pylori, ATCC43504, strain ATCC 43504
[4] = Helicobacter pylori, ATCC43504, strain ATCC 43504, read-out: MIC
[5] = Helicobacter pylori, ATCC43629, strain ATCC 43629
[6] = Helicobacter pylori, ATCC43629, strain ATCC 43629, read-out: MIC
[7] = Helicobacter pylori, ATCC49503, strain ATCC 49503
[8] = Helicobacter pylori, ATCC49503, strain ATCC 49503, read-out: MIC
[9] = Helicobacter pylori, NCTC26695, strain NCTC 26695
[10] = Helicobacter pylori, NCTC26695, strain NCTC 26695, read-out: MIC
[11] = Helicobacter pylori, strain 80A
[12] = Helicobacter pylori, strain 80A, read-out: MIC

## CC1(C)S[C@@H]2[C@H](NC(=O)[C@H](N)c3ccc(O)cc3)C(=O)N2[C@H]1C(=O)O [Amoxycillin, amoxycillin]
H. pylori [1]; [3]
  MBC: 0.05 µg/mL (≈ 0.137 µM)
H. pylori [1]; [4]
  MIC: 0.025 µg/mL (≈ 0.0684 µM)
H. pylori [1]; [5]
  MBC: 0.05 µg/mL (≈ 0.137 µM)
H. pylori [1]; [6]
  MIC: 0.025 µg/mL (≈ 0.0684 µM)
H. pylori [1]; [7]
  MBC: 0.05 µg/mL (≈ 0.137 µM)
H. pylori [1]; [8]
  MIC: 0.0125 µg/mL (≈ 0.0342 µM)
H. pylori [1]; [9]
  MBC: < 1 µg/mL
H. pylori [1]; [10]
  MIC: 0.1 µg/mL (≈ 0.274 µM)
H. pylori [1]; [11]
  MBC: 0.08 µg/mL (≈ 0.219 µM)
H. pylori [1]; [12]
  MIC: 0.02 µg/mL (≈ 0.0547 µM)
H. pylori [1]; strain 80A
  MIC: 0.02 µg/mL (≈ 0.0547 µM)
H. pylori [1]; strain ATCC 43504
  MIC: 0.025 µg/mL (≈ 0.0684 µM)
H. pylori [1]; strain ATCC 43629
  MIC: 0.025 µg/mL (≈ 0.0684 µM)
H. pylori [1]; strain ATCC 49503
  MIC: 0.013 µg/mL (≈ 0.0356 µM)
H. pylori [1]; strain NCTC 26695
  MIC: 0.1 µg/mL (≈ 0.274 µM)

## CC[C@H]1OC(=O)[C@H](C)[C@@H](O[C@H]2C[C@@](C)(OC)[C@@H](O)[C@H](C)O2)[C@H](C)[C@@H](O[C@@H]2O[C@H](C)C[C@H](N(C)C)[C@H]2O)[C@](C)(OC)C[C@@H](C)C(=O)[C@H](C)[C@@H](O)[C@]1(C)O [Clarithromycin, clarithromycin]
H. pylori [2]; strain 80A, 10 ng/disc
  Inhibition Zone Diameter: 1.8 (10) cm
H. pylori [2]; strain 121A, 10 ng/disc
  Inhibition Zone Diameter: 1.8 (10) cm
H. pylori [2]; strain ATCC 43504, 40 ng/disc
  Inhibition Zone Diameter: 2.0 (40) cm
H. pylori [2]; strain ATCC 43629, 100 ng/disc
  Inhibition Zone Diameter: 1.7 (100) cm
H. pylori [2]; strain ATCC 49503, 5 ng/disc
  Inhibition Zone Diameter: 1.7 (5) cm
H. pylori [2]; strain NCTC 26695, 400 ng/disc
  Inhibition Zone Diameter: 2.0 (400) cm
H. pylori [1]; [3]
  MBC: 0.05 µg/mL (≈ 0.0668 µM)
H. pylori [1]; [4]
  MIC: 0.025 µg/mL (≈ 0.0334 µM)
H. pylori [1]; [5]
  MBC: 0.1 µg/mL (≈ 0.134 µM)
H. pylori [1]; [6]
  MIC: 0.05 µg/mL (≈ 0.0668 µM)
H. pylori [1]; [7]
  MBC: 0.013 µg/mL (≈ 0.0174 µM)
H. pylori [1]; [8]
  MIC: 0.00625 µg/mL (≈ 0.00836 µM)
H. pylori [1]; [9]
  MBC: 0.1 µg/mL (≈ 0.134 µM)
H. pylori [1]; [10]
  MIC: 0.0625 µg/mL (≈ 0.0836 µM)
H. pylori [1]; [11]
  MBC: 0.04 µg/mL (≈ 0.0535 µM)
H. pylori [1]; [12]
  MIC: 0.02 µg/mL (≈ 0.0267 µM)
H. pylori [1]; strain 80A
  MIC: 0.02 µg/mL (≈ 0.0267 µM)
H. pylori [1]; strain ATCC 43504
  MIC: 0.025 µg/mL (≈ 0.0334 µM)
H. pylori [1]; strain ATCC 43629
  MIC: 0.050 µg/mL (≈ 0.0668 µM)
H. pylori [1]; strain ATCC 49503
  MIC: 0.006 µg/mL (≈ 0.00802 µM)
H. pylori [1]; strain NCTC 26695
  MIC: 0.063 µg/mL (≈ 0.0842 µM)

## Cc1ncc([N+](=O)[O-])n1CCO [Metronidazole, metronidazole]
H. pylori [1]; [3]
  MBC: 100 µg/mL (≈ 584 µM)
H. pylori [1]; [4]
  MIC: 50 µg/mL (≈ 292 µM)
H. pylori [1]; [5]
  MBC: 6.25 µg/mL (≈ 36.5 µM)
H. pylori [1]; [6]
  MIC: 1.56 µg/mL (≈ 9.11 µM)
H. pylori [1]; [8]
  MIC: 1.56 µg/mL (≈ 9.11 µM)
H. pylori [1]; [9]
  MBC: 10 µg/mL (≈ 58.4 µM)
H. pylori [1]; [10]
  MIC: 1.56 µg/mL (≈ 9.11 µM)
H. pylori [1]; [11]
  MBC: > 100 µg/mL

## COC(=O)c1cc(O)c(O)c(O)c1 [methyl gallate]
Gastric H+,K+-ATPase
  activity in the anti-proton pump test: did not show any activity
H. pylori [2]
  activity in the disc diffusion anti-H. pylori test: did not show any activity
H. pylori [1]
  activity in the MIC/MBC anti-H. pylori test: did not show any activity

## O=C(O[C@H]1[C@H](O)[C@@H](CO)OC(O)[C@@H]1OC(=O)c1cc(O)c(O)c(O)c1Oc1cc2c(=O)oc3c(O)c(O)cc4c(=O)oc(c1O)c2c34)c1cc(O)c(O)c(O)c1 (mixture of isomers) [Oenothein C, D-Glucose 2-[2-[(5,10-dihydro-3,7,8-trihydroxy-5,10-dioxo[1]benzopyrano[5,4,3-cde][1]benzopyran-2-yl)oxy]-3,4,5-trihydroxy benzoate]-3-(3,4,5-trihydroxybenzoate)]
Gastric H+,K+-ATPase; 0.13 μM
  inhibition at 0.13 µM: 20 to 30%
Gastric H+,K+-ATPase; 0.64 μM
  inhibition at 0.64 µM: 50 to 70%
Gastric H+,K+-ATPase; 1.30 μM
  inhibition at 1.3 µM: 70 to 90%
Gastric H+,K+-ATPase; concentration range 0.13 to 1.3 μM, read-out: IC50 of gastric proton pump activity in vitro
  IC50: 600 to 800 nM
Gastric H+,K+-ATPase; over 0.13-1.30 μM
  degree of inhibition of the gastric proton pump: 20-90%
Gastric H+,K+-ATPase; versus omeprazole, identical conditions
  degree of inhibition of gastric proton pump higher as compared with omeprazole: about 20 fold
H. pylori [2]; 100-200 μg/disc, 6 different strains of H. pylori
  inhibition zone diameter, range over strains: 1.7-2.5 cm
H. pylori [2]; strain 80A
  zone of inhibition at 100 µg/disc: 20 mm
  zone of inhibition at 200 µg/disc: 25 mm
H. pylori [2]; strain 121A
  zone of inhibition at 100 µg/disc: 17 mm
  zone of inhibition at 200 µg/disc: 20 mm
H. pylori [2]; strain ATCC 43504, 100 μg/disc
  Inhibition Zone Diameter: 2.0 cm
H. pylori [2]; strain ATCC 43504, 200 μg/disc
  Inhibition Zone Diameter: 2.7 cm
H. pylori [2]; strain ATCC 43629, 100 μg/disc
  Inhibition Zone Diameter: 1.9 cm
H. pylori [2]; strain ATCC 43629, 200 μg/disc
  Inhibition Zone Diameter: 2.3 cm
H. pylori [2]; strain ATCC 49503, 100 μg/disc
  Inhibition Zone Diameter: 1.7 cm
H. pylori [2]; strain ATCC 49503, 200 μg/disc
  Inhibition Zone Diameter: 2.2 cm
H. pylori [2]; strain NCTC 26695, 100 μg/disc
  Inhibition Zone Diameter: 2.0 cm
H. pylori [2]; strain NCTC 26695, 200 μg/disc
  Inhibition Zone Diameter: 2.4 cm
H. pylori [1]; 5 strains
  fold less competent in respect of metronidazole MIC values: 2-20 fold
H. pylori [1]; [3]
  MBC: > 50 µg/mL
H. pylori [1]; [4]
  MIC: 25 µg/mL
H. pylori [1]; [5]
  MBC: > 50 µg/mL
H. pylori [1]; [6]
  MIC: 25 µg/mL
H. pylori [1]; [7]
  MBC: 50 µg/mL
H. pylori [1]; [8]
  MIC: 6.25 µg/mL
H. pylori [1]; [9]
  MBC: 25 µg/mL
H. pylori [1]; [10]
  MIC: 12.5 µg/mL
H. pylori [1]; [11]
  MBC: 50 µg/mL
H. pylori [1]; [12]
  MIC: 25 µg/mL
H. pylori [1]; clinical and standard strains of H. pylori
  minimum inhibitory concentration (MIC), range over strains: 6.25 to 25.0 µg/mL
H. pylori [1]; different strains
  fold less potent as compared with clarithromycin and amoxycillin, based on MIC values: 500-1000 fold
B. cereus
  MIC: > 400 µg/mL
E. coli
  MIC: > 400 µg/mL
K. pneumoniae
  MIC: > 400 µg/mL
S. typhi
  MIC: > 400 µg/mL
Swiss albino mice; 250 mg/Kg body weight, oral route, 15 days
  health and behaviour under observation: found to remain healthy, and no behavioral abnormality were noted
Swiss albino mice; 250 mg/Kg body weight, oral route, after 24 hours
  mortality: no mortality
Swiss albino mice; single dose level up to 250 mg/kg body weight
  toxic effect: does not show any toxic effect
Solubility in solvents
  solubility: soluble in methanol, acetone and DMSO

## COc1ccc2[nH]c([S+]([O-])Cc3ncc(C)c(OC)c3C)nc2c1 (centres unmarked) [Omeprazole, omeprazole]
Gastric H+,K+-ATPase; 3 μM
  % Inhibition of H+,K+-ATPase: 10-30%
  inhibition at 3 µM: ~20%
Gastric H+,K+-ATPase; 15 μM
  inhibition at 15 µM: 40 to 60%
Gastric H+,K+-ATPase; 30 μM
  inhibition at 30 µM: 80 to 90%
Gastric H+,K+-ATPase; over 3-30 μM
  degree of inhibition of the gastric proton pump: 10-90%
